Series [1] in a line: in vivo animal feeding study for caloric availability (body weight gain). Also on record: species or system male Sprague-Dawley rats. Particulars: rats, diet of 50% fort and 21% test compound, 14 days. An excerpt: This example illustrates how the novel fat mimetics of this invention are screened for caloric availability by a carefully controlled in vivo animal feeding study.
An experimental relationship between total calories ingested and animal body weight gain is established by monitoring the body weight gain associated with consumption of a nutritionally balanced diet containing varying concentrations of a reference substance such as corn oil which has a known caloric availability. Correlations between total calories ingested and body weight gain are excellent (r=0.99).
Caloric availability of an unknown substance is evaluated by substituting a specific weight of the unknown substance for the reference substance and observing the body weight gain. The gain in body weight is equated to a total number of calories using the correlation previously established for the reference data. The estimated number of calories ingested are divided by the weight of unknown substance to give the apparent calories per gram for the unknown substance. Generally speaking, in these bioavailability studies, the degree of perianal pelt soiling correlates with reduced bioavailability.
The test animals are six-week-old male Sprague-Dawley rats obtained from the Portage, Mich. facility of the Charles River Laboratories, Inc. After acclimation for 15 days, the test duration is 14 days. […]

Series [2] deals with porcine pancreatic lipase. The series can be described thus: in vitro digestibility: hydrolysis by pancreatic lipase (TLC densitometry). The format is in vitro ADME. As to conditions: in 10 minutes, triglyceride control, 37° C., pH 7.1. As for the experimental part:
This example outlines the procedure for estimating the in vitro digestibility of the synthetic fat mimetics of this invention.
1. Buffer: A pH 7.1 phosphate buffer is prepared by dissolving 6.8 g. KH2 PO4 in 1 L. of millipore filtered water (to yield 0.05 M phosphate). Fifty mg. Ca(NO3)2 and 5.0 g. cholic acid (Na salt, an ox bile isolate from Sigma) are added to give 300 microM Ca^++ and 0.5 % cholic acid in 0.05 M phosphate. The pH is adjusted to approximately 7.1 with solid NaOH. Several drops of Baker "Resi-analyzed" toluene are added to prevent bacterial growth during storage at 3-5° C.
2. Lipase: About 15 mg./mL commercial porcine pancreatic lipase from U.S. Biochemical Corporation is dissolved in buffer.
3. Substrates and Standards: A 1.0 mL volumetric flask is charged with an amount of lipid substrate (test substance or standard) calculated to give a concentration of 200 nanomoles per microliter in Baker "Resi-analyzed" toluene. (The proper concentration may be approximated by […] the molecular weight of the lipid in question, dividing by 10, and diluting to the mark; this yields about 200 nanomoles per microliter.) This preparation affords the substrate to be used in the hydrolysis reactions. […]

This note sets out measurements from patent US4927659A, “Tris-hydroxymethyl lower alkane esters as fat mimetics” (Nabisco Brands, Inc., priority 1989, dated 1990).

As to `CCCCCCCC/C=C\CCCCCCCC(=O)OCC(C)(COC(=O)CCCCCCC/C=C\CCCCCCCC)COC(=O)CCCCCCC/C=C\CCCCCCCC` [Example 1, 1,1,1-Tris-hydroxymethylethane trioleate], the “caloric availability (kcal/gram upon being metabolized)” value in series [1] was “about 3.3 kcal/gram”.
Regarding `CCCCCCCC/C=C\CCCCCCCC(=O)OCC(COC(=O)CCCCCCC/C=C\CCCCCCCC)OC(=O)CCCCCCC/C=C\CCCCCCCC` [triolein], in series [2], the “hydrolysis by pancreatic lipase” value was “substantially hydrolyzed”.
